Laboratory results: PMC2885440 (Journal of natural products, 2010)

Experiment: Relative polarity on C12 reversed-phase HPLC
Type: physicochemical
Details: C12 reversed-phase HPLC (Jupiter Proteo C12), linear gradient 50–80% MeOH in 0.05% TFA in 50 min

Substance: Lys-Ala-Leu1-Leu2-Trp (lariat or depsi) [Paltolide A]
- polarity among compounds 1–6: most polar
